Measurements as given in patent US4015002A, “1-Aryl-2-oxo-2,4,5,6,7,7a-hexahydro-indoles, salts, pharmaceutical compositions and methods of use” (Laboratoire Roger Bellon, priority 1974, dated 1977).
In brackets after ≈: the same amount, converted by molar mass. Entries after “also recorded” stand apart in the source; their conditions may differ. Read-outs that look alike come from different tables or passages of the source.

Columns and labels:
[1] = Hygroscopicity of the hydrochloride; assay type: physicochemical; conditions: hydrochloride salt
isolated auricle = assay: Cardiac action on the isolated auricle (Trevan preparation): amplitude of contractions; conditions: arrows for diminution/increase are drawings, 0 = inactive, read-out: Action on the isolated auricle: minimum concentration producing a variation of 20% in amplitude of contractions
Experimental: (§1) This was examined according to known methods in the isolated auricle (Trevan preparation) and in the isolated heart of a rabbit (Langendorf preparation).
Cardiac action of the compounds in question was evaluated according to the amplitude of contractions of the isolated auricle.

[2] = test system: isolated heart of the rabbit; assay: Cardiac action on the isolated heart of a rabbit (Langendorf preparation); conditions: for EC20: Oryctolagus cuniculus
Experimental: as §1
In the Langendorf preparation, the action of the compounds was determined from three parameters; the amplitude of contractions, coronary delivery, and rhythm. […] The results are indicated in Table 1; an arrow ↓ indicates a diminution, and an arrow ↑ an augmentation.

[3] = Toxicity, intravenous in the mouse; conditions: in vivo, i.v.
Experimental: The toxicities of the various compound were determined intravenously in the mouse.

anaethestized dog = assay: Action on femoral delivery, aortal pressure and cardiac rhythm in the anaesthetized dog; assay type: in vivo
Experimental: This was investigated in an anaethestized dog, the compounds under test being administered by intraveneous perfusion (over 5 minutes). The various compounds under test were compared by administering all of them at a dose per kilogram corresponding to 1/10 of the mouse LD50 (I.V.).
Simultaneously were measured: variations of femoral delivery, aortal pressure, and cardiac rhythm. Table II indicates the maximum variations of these different parameters observed over the 30 minutes which followed administration of various compounds. These variations are expressed in percent based on the initial values.

cardiovascular system = assay: Overall action on the cardiovascular system; assay type: in vivo
Description: Compounds in accordance with the invention have shown a marked action on the cardiovascular system, particularly as coronary and cerebal peripheral vasodilators. Some of the compounds have also shown activity as hypotensives or hypertensives. […] In these tests, aqueous solutions of the salts described in the cited Examples were used.

dog = assay: Cardiac isochaemal hypoxy in the dog (Sodi-Pallares preparation); assay type: in vivo; conditions: i.v. 10 or 25 mg/kg
Experimental: After ligature of the anterior intraventricular coronary artery (Sodi-Pallares preparation), intravenous administration of 10 or 25 mg/kg of the compound of Example 3, increased the strength of cardiac contractions and the ventricular dp/dt return, which reflects a […] in the contractile state of the myocardial fibres.

platelet aggregation = assay: Platelet aggregation in human blood; assay type: cell-based
rat = assay: Protection against cerebral isochaemial hypoxy in the rat (clamping of carotid and basilar artery, E.E.G.); assay type: in vivo; conditions: 5 mg/kg i.v.
Experimental: The protective effect of the compound of Example 3 with regard to cerebal isochaemal hypoxy is shown for at least 3 hours after injection.

[4] = direction arrow is a drawing, read-out: Amplitude of contractions: concentration producing a variation of 20%
[5] = i.v. perfusion over 5 min, dose 1/10 of mouse LD50, percent based on initial values

With CN(C)CCOc1ccc(N2C(=O)C=C3CCCCC32)cc1Cl (stereo not shown) [Example 15, 1-[3-chloro-4-(2-dimethylaminoethoxy)-phenyl]-2-oxo-2,4,5,6,7,7a-hexahydro-indole] the Hygroscopicity [1] was “hygroscopic and absorbed 1/2 mol of water from the air”, the EC20 (isolated auricle) was 5 µg/mL (≈ 14.9 µM) and the EC20 [2, 4] was 1 µg/mL (≈ 2.99 µM). The EC20 ([2]; direction arrow is a drawing, read-out: Rhythm: concentration producing a variation of 20%) was 1 µg/mL (≈ 2.99 µM), the LD50 [3] was 15 mg/kg and the “Aortal pressure, maximum variation in 30 minutes” value (anaethestized dog; [5]) was 0%. The “Cardiac Rhythm, maximum variation in 30 minutes” value (anaethestized dog; [5]) was 0%.
With O=C1C=C2CCCCC2N1c1ccc(OCCN2CCOCC2)cc1 (stereo not shown) [Example 3, 1-[4-(2-morpholinoethoxy)-phenyl]-2-oxo-2,4,5,6,7,7a-hexahydro-indole] the “Action on the cardiovascular system (in words)” value (cardiovascular system; aqueous solutions of the salts) was “vasodilators, this action being shown on coronary delivery, femoral delivery and vertebral delivery”, the “Cardiac frequency on increase in amplitude of cardiac contractions (in words)” value (cardiovascular system; in vivo) was “modified and transitory increase in cardiac frequency” and the “Protection with regard to cardiac isochaemal hypoxy” value (dog) was “showed protective properties”. For the same molecule, the “Strength of cardiac contractions” value (dog; after coronary artery ligature) was “increased”, the Ventricular dp/dt return (dog; after coronary artery ligature) was “increased” and the “Inhibition of platelet aggregation induced by A.D.P.” value (platelet aggregation; 1 × 10^-5 (unit not given), A.D.P. 5 mM/l) was “inhibited platelet aggregation”. The “Inhibition of platelet aggregation induced by collagen” value (platelet aggregation; 1 × 10^-5 (unit not given), collagen 200 mg/cm^3) was “inhibited platelet aggregation”, the “Inhibition of platelet aggregation induced by adrenalin” value (platelet aggregation; 2 × 10^-4 M, adrenalin 2.5 mcM/l) was “inhibited platelet aggregation” and the “Coronary delivery (in words)” value [2] was “did not modify coronary rhythm or augment coronary delivery”. The “Coronary rhythm (in words)” value [2] was “did not modify coronary rhythm”, the EC20 ([2]; augmentation, read-out: Concentration providing an augmentation of 20% in the amplitude of contractions) was 10 µg/mL (≈ 29.2 µM) and the EC20 [2, 4] was 10 µg/mL (≈ 29.2 µM). For the same molecule, the EC20 ([2]; direction arrow is a drawing, read-out: Coronary delivery: concentration producing a variation of 20%) was 20 µg/mL (≈ 58.4 µM), the “Protection with regard to cerebral isochaemial hypoxy” value (rat) was “marked protecting properties” and the “Delay in the appearance of electrical silence in the E.E.G.” value (rat; after beginning of clamping) was “significantly increased”. For the same molecule, the “Duration of protective effect with regard to cerebral hypoxy” value (rat; after injection) was “at least 3 hours”, the “Delay in normalization of the E.E.G. trace” value (rat; after removal of the clamps) was “significantly reduced” and the “Period of electrical silence of the E.E.G.” value (rat; during clamping and after removal of clamps) was “significantly reduced”. The LD50 [3] was 225 mg/kg, the “Aortal pressure (in words)” value (anaethestized dog; anaesthetized dog, i.v.) was “without modifying aortal pressure; also recorded: without changes in aortal pressure” and the “Cardiac frequency (in words)” value (anaethestized dog; anaesthetized dog, i.v.) was “without modifying aortal pressure or cardiac frequency”. The “Vasodilator action (in words)” value (anaethestized dog; anaesthetized dog, i.v., 1/10 of mouse LD50) was “clearly vasodilators”, the “Aortal pressure (in words)” value (anaethestized dog; anaesthetized dog, i.v., listed as Example 4) was “without changes in aortal pressure” and the “Aortal pressure, maximum variation in 30 minutes” value (anaethestized dog; [5]) was 0%.
